What was measured:
Type in all cases: cell-based
hFP = molecular target: T1, hFP (Homo sapiens, UniProt P43088); experiment: FLIPR calcium signal study, hFP; conditions: HEK-293(EBNA) cells expressing recombinant human receptor, read-out: HFP functional data
T1 construct: expressed in transfected cells; host or cells: HEK-293(EBNA)
Experimental: (§1) Methods for FLIPR™ Studies (a) Cell Culture
(§2) HEK-293(EBNA) cells, stably expressing one type or subtype of recombinant human prostaglandin receptors (prostaglandin receptors expressed: hDP/Gqs5; hEP1; hEP2/Gqs5; hEP3A/Gqi5; hEP4/Gqs5; hFP; hIP; hTP), were cultured in 100 mm culture dishes in high-glucose DMEM medium containing 10% fetal bovine serum, 2 mM 1-glutamine, 250 μg/ml geneticin (G418) and 200 μg/ml hygromycin B as selection markers, and 100 units/ml penicillin G, 100 μg/ml streptomycin and 0.25 μg/ml amphotericin B.
(§3) (b) Calcium Signal Studies on the FLIPR™
(§4) Cells were seeded at a density of 5×10^4 cells per well in Biocoat® Poly-D-lysine-coated black-wall, clear-bottom 96-well plates (Becton-Dickinson) and allowed to attach overnight in an incubator at 37° C. Cells were then washed two times with HBSS-HEPES buffer (Hanks Balanced Salt Solution without bicarbonate and phenol red, 20 mM HEPES, pH 7.4) using a Denley Cellwash plate washer (Labsystems). After 45 minutes of dye-loading in the dark, using the calcium-sensitive dye Fluo-4 AM at a final concentration of 2 μM, plates were washed four times with HBSS-HEPES buffer to remove excess dye leaving 100 μl in each well. Plates were re-equilibrated to 37° C. for a few minutes.
(§5) Cells were excited with an Argon laser at 488 nm, and emission was measured through a 510-570 nm bandwidth emission filter (FLIPR™, Molecular Devices, Sunnyvale, Calif.). Drug solution was added in a 50 μl volume to each well to give the desired final concentration. The peak increase in fluorescence intensity was recorded for each well. On each plate, four wells each served as negative (HBSS-HEPES buffer) and positive controls (standard agonists: BW245C (hDP); PGE2 (hEP1; hEP2/Gqs5; hEP3A/Gqi5; hEP4/Gqs5); PGF2, (hFP); carbacyclin (hIP); U-46619 (hTP), depending on receptor). The peak fluorescence change in each drug-containing well was then expressed relative to the controls.
(§6) Compounds were tested in a high-throughput (HTS) or concentration-response (CoRe) format. In the HTS format, forty-four compounds per plate were examined in duplicates at a concentration of 10^−5 M. To generate concentration-response curves, four compounds per plate were tested in duplicates in a concentration range between 10^−5 and 10^−11 M. The duplicate values were averaged. In either, HTS or CoRe format each compound was tested on at least 3 separate plates using cells from different passages to give an n≧3.

hTP = molecular target: T2, hTP (Homo sapiens, UniProt P21731); experiment: FLIPR calcium signal study, hTP; conditions: HEK-293(EBNA) cells expressing recombinant human receptor, read-out: HTP functional data
T2 construct: expressed in transfected cells; host or cells: HEK-293(EBNA)
T2 sequence (P21731 1-343): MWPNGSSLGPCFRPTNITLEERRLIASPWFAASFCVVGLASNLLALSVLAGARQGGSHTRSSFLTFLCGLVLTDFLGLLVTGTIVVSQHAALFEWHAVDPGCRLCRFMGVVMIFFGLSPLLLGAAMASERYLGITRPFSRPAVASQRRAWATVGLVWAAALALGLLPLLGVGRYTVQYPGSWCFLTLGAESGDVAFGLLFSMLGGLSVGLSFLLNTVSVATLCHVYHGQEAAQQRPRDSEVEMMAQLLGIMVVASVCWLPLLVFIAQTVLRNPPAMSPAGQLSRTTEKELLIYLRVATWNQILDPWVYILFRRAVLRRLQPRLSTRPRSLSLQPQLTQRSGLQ
Experimental: as §1, §2, §3, §4, §5, §6

hEP4/Gqs5 = molecular target: T3, hEP4/Gqs5 (Homo sapiens, UniProt P35408); experiment: FLIPR calcium signal study, hEP4/Gqs5; conditions: HEK-293(EBNA) cells expressing recombinant human receptor, read-out: HEP4 functional data
T3 construct: expressed in transfected cells; host or cells: HEK-293(EBNA)
Experimental: as §1, §2, §3, §4, §5, §6

hIP = molecular target: T4, hIP (Homo sapiens, UniProt P43119); experiment: FLIPR calcium signal study, hIP; conditions: HEK-293(EBNA) cells expressing recombinant human receptor, read-out: HIP functional data
T4 construct: expressed in transfected cells; host or cells: HEK-293(EBNA)
Experimental: as §1, §2, §3, §4, §5
Compounds were tested in a high-throughput (HTS) or concentration-response (CoRe) format. […]

hEP3A/Gqi5 = molecular target: T5, hEP3A/Gqi5 (Homo sapiens, UniProt P43115); experiment: FLIPR calcium signal study, hEP3A/Gqi5; conditions: HEK-293(EBNA) cells expressing recombinant human receptor, read-out: HEP3A functional data
T5 construct: expressed in transfected cells; host or cells: HEK-293(EBNA)
T5 sequence (P43115 1-390): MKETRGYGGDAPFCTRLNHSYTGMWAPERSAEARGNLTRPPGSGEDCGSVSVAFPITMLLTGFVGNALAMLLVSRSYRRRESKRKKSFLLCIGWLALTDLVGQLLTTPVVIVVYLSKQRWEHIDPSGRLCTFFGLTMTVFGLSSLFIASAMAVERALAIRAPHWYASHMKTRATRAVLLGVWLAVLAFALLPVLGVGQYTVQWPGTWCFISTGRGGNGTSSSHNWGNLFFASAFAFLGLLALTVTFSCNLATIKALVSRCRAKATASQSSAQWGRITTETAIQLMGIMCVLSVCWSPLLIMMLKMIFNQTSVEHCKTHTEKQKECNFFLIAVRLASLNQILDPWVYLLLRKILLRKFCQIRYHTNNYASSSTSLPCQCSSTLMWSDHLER
Experimental: as §1, §2, §3
Cells were seeded at a density of 5×10^4 cells per well in Biocoat® Poly-D-lysine-coated black-wall, clear-bottom 96-well plates (Becton-Dickinson) and allowed to attach overnight in an incubator at 37° C. Cells were then washed two times with HBSS-HEPES buffer (Hanks Balanced Salt Solution without bicarbonate and phenol red, 20 mM HEPES, pH 7.4) using a Denley Cellwash plate washer (Labsystems). […]
Cells were excited with an Argon laser at 488 nm, and emission was measured through a 510-570 nm bandwidth emission filter (FLIPR™, Molecular Devices, Sunnyvale, Calif.). […] The peak increase in fluorescence intensity was recorded for each well. […] The peak fluorescence change in each drug-containing well was then expressed relative to the controls. […]

T1 sequence (P43088 whole entry): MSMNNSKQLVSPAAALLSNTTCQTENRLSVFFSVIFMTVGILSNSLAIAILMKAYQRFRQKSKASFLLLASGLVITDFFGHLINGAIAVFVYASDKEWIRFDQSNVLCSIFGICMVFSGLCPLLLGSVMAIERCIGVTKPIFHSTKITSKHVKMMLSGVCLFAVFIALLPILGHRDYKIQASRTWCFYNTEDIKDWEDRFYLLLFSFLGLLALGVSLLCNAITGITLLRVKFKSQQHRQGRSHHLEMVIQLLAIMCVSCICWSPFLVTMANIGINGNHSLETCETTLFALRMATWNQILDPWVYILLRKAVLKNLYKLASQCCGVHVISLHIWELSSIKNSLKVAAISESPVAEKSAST
T3 sequence (P35408 whole entry): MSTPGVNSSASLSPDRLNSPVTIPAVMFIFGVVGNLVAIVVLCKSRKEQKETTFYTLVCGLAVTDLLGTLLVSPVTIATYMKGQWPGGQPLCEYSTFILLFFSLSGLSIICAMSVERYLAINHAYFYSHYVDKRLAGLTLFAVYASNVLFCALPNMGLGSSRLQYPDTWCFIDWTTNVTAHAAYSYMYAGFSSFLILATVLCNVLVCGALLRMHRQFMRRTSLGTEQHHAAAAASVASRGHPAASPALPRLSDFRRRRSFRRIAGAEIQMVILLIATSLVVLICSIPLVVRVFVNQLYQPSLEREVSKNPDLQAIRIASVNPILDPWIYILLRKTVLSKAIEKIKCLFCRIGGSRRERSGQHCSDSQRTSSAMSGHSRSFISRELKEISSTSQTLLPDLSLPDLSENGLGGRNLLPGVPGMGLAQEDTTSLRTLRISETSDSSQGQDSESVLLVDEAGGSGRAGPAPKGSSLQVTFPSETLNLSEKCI
T4 sequence (P43119 whole entry): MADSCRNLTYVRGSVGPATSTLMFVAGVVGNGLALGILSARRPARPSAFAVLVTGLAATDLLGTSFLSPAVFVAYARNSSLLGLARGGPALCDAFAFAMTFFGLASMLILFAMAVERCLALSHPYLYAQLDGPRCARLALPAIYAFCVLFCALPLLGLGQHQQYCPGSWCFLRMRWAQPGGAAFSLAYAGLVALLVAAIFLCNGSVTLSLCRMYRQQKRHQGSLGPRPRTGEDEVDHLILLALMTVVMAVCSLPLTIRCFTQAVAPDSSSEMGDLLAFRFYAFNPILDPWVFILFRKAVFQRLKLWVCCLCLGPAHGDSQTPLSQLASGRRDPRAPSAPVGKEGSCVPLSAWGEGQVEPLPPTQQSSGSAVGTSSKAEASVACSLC

| SMILES | EC50 (hFP) [µM] | EC50 (hTP) [µM] | EC50 (hEP4/Gqs5) [µM] | EC50 (hIP) [µM] | EC50 (hEP3A/Gqi5) [µM] |
| --- | --- | --- | --- | --- | --- |
| CCNC(=O)CCC/C=C\C[C@H]1C(O)CC(C)[C@@H]1/C=C/[C@@H](O)CCc1cc(Br)c(C)s1 (stereo partly drawn) [Compound 15H, (Z)-7-{(1R,2R)-2-[(E)-(S)-5-(4-Bromo-5-methyl-thiophen-2-yl)-3-hydroxy-pent-1-enyl]-5-hydroxy-3-methyl-cyclopentyl}-hept-5-enoic acid ethylamide] | > 10 | > 10 | > 10 | – | – |
| C=CC1CC(O)[C@H](C/C=C\CCCC(N)=O)[C@H]1/C=C/[C@@H](O)CCc1cc(Br)c(C)s1 (stereo partly drawn) [Compound 13H, (Z)-7-{(1R,2S)-2-[(E)-(S)-5-(4-Bromo-5-methyl-thiophen-2-yl)-3-hydroxy-pent-1-enyl]-5-hydroxy-3-vinyl-cyclopentyl}-hept-5-enoic acid amide] | 0.584 | 2.52 | – | > 10 | 7.08 |
| CCNC(=O)CCC/C=C\C[C@@H]1[C@@H](/C=C/[C@@H](O)CCc2cc(Br)c(C)s2)[C@H](O)C[C@@H]1O [Control, reference compound] | 2.14 | – | – | – | – |
| C=CC1CC(O)[C@H](C/C=C\CCCC(=O)NCCO)[C@H]1/C=C/[C@@H](O)CCc1cc(Br)c(C)s1 (stereo partly drawn) [Compound 12L, (Z)-7-{(1R,2S)-2-[(E)-(S)-5-(4-Bromo-5-methyl-thiophen-2-yl)-3-hydroxy-pent-1-enyl]-5-hydroxy-3-vinyl-cyclopentyl}-hept-5-enoic acid (2-hydroxy-ethyl)-amide] | > 10 | > 10 | – | > 10 | – |
| CCNC(=O)CCC/C=C\C[C@H]1C(O)CC(C)[C@@H]1/C=C/[C@@H](O)CCc1cc(Br)c(C)s1 (stereo partly drawn) [Compound 15L, (Z)-7-{(1R,2R)-2-[(E)-(S)-5-(4-Bromo-5-methyl-thiophen-2-yl)-3-hydroxy-pent-1-enyl]-5-hydroxy-3-methyl-cyclopentyl}-hept-5-enoic acid ethylamide] | – | – | > 10 | – | – |
| Cc1sc(CC[C@H](O)/C=C/[C@H]2CCC(O)[C@@H]2C/C=C\CCCC(=O)NCCO)cc1Br (stereo partly drawn) [Compound 22H, (Z)-7-{(1R,2R)-2-[(E)-(S)-5-(4-Bromo-5-methyl-thiophen-2-yl)-3-hydroxy-pent-1-enyl]-5-hydroxy-cyclopentyl}-hept-5-enoic acid (2-hydroxy-ethyl)-amide] | > 10 | > 10 | – | – | – |
| Cc1sc(CC[C@H](O)/C=C/[C@H]2C(C)CC(O)[C@@H]2C/C=C\CCCC(=O)NCCO)cc1Br (stereo partly drawn) [Compound 16H, (Z)-7-{(1R,2R)-2-[(E)-(S)-5-(4-Bromo-5-methyl-thiophen-2-yl)-3-hydroxy-pent-1-enyl]-5-hydroxy-3-methyl-cyclopentyl}-hept-5-enoic acid (2-hydroxy-ethyl)-amide] | ≥ 10 | 1.38 | – | – | – |
| Cc1sc(CC[C@H](O)/C=C/[C@H]2C(C)CC(O)[C@@H]2C/C=C\CCCC(N)=O)cc1Br (stereo partly drawn) [Compound 17L, (Z)-7-{(1R,2R)-2-[(E)-(S)-5-(4-Bromo-5-methyl-thiophen-2-yl)-3-hydroxy-pent-1-enyl]-5-hydroxy-3-methyl-cyclopentyl}-hept-5-enoic acid amide] | > 10 | – | – | – | – |
| Cc1sc(CC[C@H](O)/C=C/[C@H]2C(C)CC(O)[C@@H]2C/C=C\CCCC(=O)NCCO)cc1Br (stereo partly drawn) [Compound 16L, (Z)-7-{(1R,2R)-2-[(E)-(S)-5-(4-Bromo-5-methyl-thiophen-2-yl)-3-hydroxy-pent-1-enyl]-5-hydroxy-3-methyl-cyclopentyl}-hept-5-enoic acid (2-hydroxy-ethyl)-amide] | – | – | > 10 | – | – |
| CCC1CC(O)[C@H](C/C=C\CCCC(N)=O)[C@H]1/C=C/[C@@H](O)CCc1cc(Br)c(C)s1 (stereo partly drawn) [Compound 20H, (Z)-7-{(1R,2R)-2-[(E)-(S)-5-(4-Bromo-5-methyl-thiophen-2-yl)-3-hydroxy-pent-1-enyl]-3-ethyl-5-hydroxy-cyclopentyl}-hept-5-enoic acid amide] | 5.42 | > 10 | – | – | > 10 |
| C=CC1CC(O)[C@H](C/C=C\CCCC(=O)NCC)[C@H]1/C=C/[C@@H](O)CCc1cc(Br)c(C)s1 (stereo partly drawn) [Compound 14H, (Z)-7-{(1R,2S)-2-[(E)-(S)-5-(4-Bromo-5-methyl-thiophen-2-yl)-3-hydroxy-pent-1-enyl]-5-hydroxy-3-vinyl-cyclopentyl}-hept-5-enoic acid ethylamide] | > 10 | – | – | – | – |
| C=CC1CC(O)[C@H](C/C=C\CCCC(=O)NCCO)[C@H]1/C=C/[C@@H](O)CCc1cc(Br)c(C)s1 (stereo partly drawn) [Compound 12H, (Z)-7-{(1R,2S)-2-[(E)-(S)-5-(4-Bromo-5-methyl-thiophen-2-yl)-3-hydroxy-pent-1-enyl]-5-hydroxy-3-vinyl-cyclopentyl}-hept-5-enoic acid (2-hydroxy-ethyl)-amide] | > 10 | > 10 | > 10 | > 10 | – |
| C=CC1CC(O)[C@H](C/C=C\CCCC(N)=O)[C@H]1/C=C/[C@@H](O)CCc1cc(Br)c(C)s1 (stereo partly drawn) [Compound 13L, (Z)-7-{(1R,2S)-2-[(E)-(S)-5-(4-Bromo-5-methyl-thiophen-2-yl)-3-hydroxy-pent-1-enyl]-5-hydroxy-3-vinyl-cyclopentyl}-hept-5-enoic acid amide] | – | – | > 10 | – | – |
| Cc1sc(CC[C@H](O)/C=C/[C@H]2CCC(O)[C@@H]2C/C=C\CCCC(N)=O)cc1Br (stereo partly drawn) [Compound 23H, (Z)-7-{(1R,2R)-2-[(E)-(S)-5-(4-Bromo-5-methyl-thiophen-2-yl)-3-hydroxy-pent-1-enyl]-5-hydroxy-cyclopentyl}-hept-5-enoic acid amide] | > 10 | 2.13 | – | – | – |
| CCNC(=O)CCC/C=C\C[C@H]1C(O)CC[C@@H]1/C=C/[C@@H](O)CCc1cc(Br)c(C)s1 (stereo partly drawn) [Compound 21H, (Z)-7-{(1R,2R)-2-[(E)-(S)-5-(4-Bromo-5-methyl-thiophen-2-yl)-3-hydroxy-pent-1-enyl]-5-hydroxy-cyclopentyl}-hept-5-enoic acid ethylamide] | > 10 | > 10 | – | – | – |
| Cc1sc(CC[C@H](O)/C=C/[C@H]2C(C)CC(O)[C@@H]2C/C=C\CCCC(N)=O)cc1Br (stereo partly drawn) [Compound 17H, (Z)-7-{(1R,2R)-2-[(E)-(S)-5-(4-Bromo-5-methyl-thiophen-2-yl)-3-hydroxy-pent-1-enyl]-5-hydroxy-3-methyl-cyclopentyl}-hept-5-enoic acid amide] | ≥ 10 | 1.95 | > 10 | – | – |

Source: patent US20060035961A1, “Cyclopentane heptan(ENE)OIC acid, 2-heteroarylalkenyl derivatives as therapeutic agents” (ALLERGAN, INC., priority 2004, published 2006)
